Laboratory results from patent US20250243188A1, “METHIONINE ADENOSYLTRANSERASE 2A INHIBITORS” (IDEAYA BIOSCIENCES, INC., priority 2022, published 2025).

Molecular target: Human MAT2A (Homo sapiens (Human), UniProt P31153)
Experiment: Phosphate Sensor Fluorescence Assay (MAT2A enzyme inhibition)
Format: biochemical
Settings: MAT2A (1-395) 5.8 nM, 500 uM L-methionine, 500 uM ATP
Method: The ability of the compound of present disclosure to inhibit MAT2A enzyme was determined using a Phosphate Sensor Fluorescence Assay described below.
MAT2A enzyme is incubated with a test compound in DMSO or DMSO and its substrates (L-methionine and ATP) in a microtiter plate. The enzymatic reaction is stopped by the addition of Working Phosphate Sensor Mixture. The plate is analyzed for fluorescence at 450 nm. The high control (DMSO with enzyme and its substrates) gives high fluorescence which represents no inhibition of enzymatic activity while the low control (DMSO with MAT2A substrates and no enzyme) gives low fluorescence which represents full inhibition of enzymatic activity.
• Human MAT2A: Cepter, amino acids 1-395 (Clone ID 334, lot 00023-148) • Tris, pH 7.5: Invitrogen cat #15567-027 • KCl: Ambion cat #AM9640G • MgCl2: Ambion cat #AM9530G • Brij-35: Sigma cat B4184-10ML • DTT: Goldbio cat #DTT100 • BGG: Sigma cat #G5009-25G • PNP: Novus Biologicals cat #NBP1-50872 • 7-MEG: Cayman Chemical cat #15988 • L-Methionine: JTBaker P/N 2085-05 • ATP: Promega P/N V915B • Phosphate Sensor: Thermo Fisher cat #PV4407 • EDTA: Invitrogen cat #15575-038 • Assay plate: 384-well black polypropylene plate: Corning P/N 3573
• Assay Buffer: 50 mM Tris, pH 7.5/50 mM KCl/10 mM MgCl2/0.01% Brij-35/1 mM DTT/0.01% BGG/40 nM PNP/6 uM 7-MEG • MAT2A: 5.8 nM MAT2A (1-395), Cepter, clone ID 334, lot 00023-148 before the addition of Working Phosphate Sensor Mixture • L-methionine: 500 uM before the addition of Working Phosphate Sensor Mixture • ATP: 500 uM before the addition of Working Phosphate Sensor Mixture
For the assay, a mixture of 1 mM L-methionine/1 mM ATP (2× final pre-stopped concentration) in assay buffer; MAT2A (2× final pre-stopped concentration) in Assay Buffer and Working Phosphate Sensor Mixture (1.5 uM Phosphate Sensor/30 mM EDTA in Assay Buffer, which is 3× final concentrations) were prepared. Test compounds or DMSO were added to the appropriate well using a Beckman Coulter Echo 550 acoustic liquid handler. 10 μl/well of Assay Buffer was added to the wells corresponding to the negative control and 10 μl/well of MAT2A was added to all the wells except for those corresponding to the negative control. After incubating the plate at room temperature for 15 minutes, 10 μl/well of the 1 mM L-methionine/1 mM ATP mixture was added to all wells. The plate was centrifuged at 1000 rpm for 1 minute and then incubated at room temperature for 1 hour. 10 μl of the Working Phosphate Sensor Mixture was added to all wells and the plate was centrifuged at 1000 rpm for 1 minute. The plate was read for fluorescence at 450 nm after exciting at 430 nm on a Tecan Spark microplate reader.
Percent inhibition was calculated in Chemical and Biological Information System (CBIS), (ChemInnovation Software Inc.). Curves were fitted by CBIS as % inhibition vs. log [compound concentration] using a 4-parameter inhibition model.

Chain of Human MAT2A (P31153 whole entry): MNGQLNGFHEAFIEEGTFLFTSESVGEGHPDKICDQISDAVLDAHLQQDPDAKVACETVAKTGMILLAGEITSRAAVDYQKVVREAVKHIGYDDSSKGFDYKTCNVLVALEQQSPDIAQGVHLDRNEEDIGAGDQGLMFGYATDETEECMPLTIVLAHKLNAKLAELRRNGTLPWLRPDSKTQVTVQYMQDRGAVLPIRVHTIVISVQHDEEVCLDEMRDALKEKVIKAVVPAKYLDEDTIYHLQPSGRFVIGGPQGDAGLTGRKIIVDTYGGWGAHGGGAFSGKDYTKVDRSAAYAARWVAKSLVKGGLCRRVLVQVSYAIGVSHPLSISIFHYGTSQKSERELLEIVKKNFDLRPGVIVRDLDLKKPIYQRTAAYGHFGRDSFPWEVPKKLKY

IC50 [µM]	Compound
< 0.2	CN(C)c1nc(=O)n(-c2cccc(NC(=O)c3csc(-n4c(=O)nc(N(C)C)c5ccc(Cl)cc54)c3)c2)c2cc(Cl)ccc12 [Example 1, 5-(7-Chloro-4-(dimethylamino)-2-oxoquinazolin-1(2H)-yl)-N-(3-(7-chloro-4-(dimethylamino)-2-oxoquinazolin-1(2H)-yl)phenyl)thiophene-3-carboxamide]
< 0.2	O=C(Nc1cccc(-n2c(=O)[nH]c(=O)c3ccc(Cl)cc32)c1)c1csc(-n2c(=O)[nH]c(=O)c3ccc(Cl)cc32)c1 [Example 2, 5-(7-Chloro-2,4-dioxo-3,4-dihydroquinazolin-1(2H)-yl)-N-(3-(7-chloro-2,4-dioxo-3,4-dihydroquinazolin-1(2H)-yl)phenyl)thiophene-3-carboxamide]
< 0.2	Cc1c(C(=O)Nc2cccc(-n3c(=O)nc(N(C)C)c4ccc(Cl)cc43)c2)csc1-n1c(=O)nc(N(C)C)c2ccc(Cl)cc21 [Example 3, 5-(7-Chloro-4-(dimethylamino)-2-oxoquinazolin-1(2H)-yl)-N-(3-(7-chloro-4-(dimethylamino)-2-oxoquinazolin-1(2H)-yl)phenyl)-4-methylthiophene-3-carboxamide]
< 0.2	CN(C)c1nc(=O)n(-c2cccc(NC(=O)c3ncc(-n4c(=O)nc(N(C)C)c5ccc(Cl)cc54)n3C)c2)c2cc(Cl)ccc12 [Example 4, 5-(7-Chloro-4-(dimethylamino)-2-oxoquinazolin-1(2H)-yl)-N-(3-(7-chloro-4-(dimethylamino)-2-oxoquinazolin-1(2H)-yl)phenyl)-1-methyl-1H-imidazole-2-carboxamide]
< 0.2	O=C(Nc1cccc(-n2c(=O)[nH]c(=O)c3ccc(C(F)(F)F)cc32)c1)c1csc(-n2c(=O)[nH]c(=O)c3ccc(C(F)(F)F)cc32)c1 [Example 5, 5-(2,4-Dioxo-7-(trifluoromethyl)-3,4-dihydroquinazolin-1(2H)-yl)-N-(3-(2,4-dioxo-7-(trifluoromethyl)-3,4-dihydroquinazolin-1(2H)-yl)phenyl)thiophene-3-carboxamide]
< 0.2	CN(C)c1nc(=O)n(-c2cccc(NC(=O)c3csc(-n4c(=O)nc(N(C)C)c5ccc(C(F)(F)F)cc54)c3)c2)c2cc(C(F)(F)F)ccc12 [Example 6, 5-(4-(Dimethylamino)-2-oxo-7-(trifluoromethyl)quinazolin-1(2H)-yl)-N-(3-(4-(dimethylamino)-2-oxo-7-(trifluoromethyl)quinazolin-1(2H)-yl)phenyl)thiophene-3-carboxamide]
< 0.2	O=C(Nc1cccc(-n2c(=O)[nH]c(=O)c3ccc(Cl)cc32)c1)c1cccc(-n2c(=O)[nH]c(=O)c3ccc(Cl)cc32)c1 [Example 7, 3-(7-Chloro-2,4-dioxo-3,4-dihydroquinazolin-1(2H)-yl)-N-(3-(7-chloro-2,4-dioxo-3,4-dihydroquinazolin-1(2H)-yl)phenyl)benzamide]
< 0.2	CN(C)c1nc(=O)n(-c2cccc(NC(=O)c3cnc(-n4c(=O)nc(N(C)C)c5ccc(Cl)cc54)s3)c2)c2cc(Cl)ccc12 [Example 8, 2-(7-Chloro-4-(dimethylamino)-2-oxoquinazolin-1(2H)-yl)-N-(3-(7-chloro-4-(dimethylamino)-2-oxoquinazolin-1(2H)-yl)phenyl)thiazole-5-carboxamide]
< 0.2	Cn1c(-n2c(=O)[nH]c(=O)c3ccc(Cl)cc32)cnc1C(=O)Nc1cccc(-n2c(=O)[nH]c(=O)c3ccc(Cl)cc32)c1 [Example 9, 5-(7-Chloro-2,4-dioxo-3,4-dihydroquinazolin-1(2H)-yl)-N-(3-(7-chloro-2,4-dioxo-3,4-dihydroquinazolin-1(2H)-yl)phenyl)-1-methyl-1H-imidazole-2-carboxamide]
< 0.2	CN(C)c1nc(=O)n(-c2cccc(NC(=O)c3cc(-n4c(=O)nc(N(C)C)c5ccc(Br)cc54)n(C)n3)c2F)c2cc(Cl)ccc12 [Example 10, 5-(7-Bromo-4-(dimethylamino)-2-oxoquinazolin-1(2H)-yl)-N-(3-(7-chloro-4-(dimethylamino)-2-oxoquinazolin-1(2H)-yl)-2-fluorophenyl)-1-methyl-1H-pyrazole-3-carboxamide]
< 0.2	CN(C)c1nc(=O)n(-c2cccc(NCc3csc(-n4c(=O)nc(N(C)C)c5ccc(Cl)cc54)c3)c2)c2cc(Cl)ccc12 [Example 11, 7-Chloro-1-(4-(((3-(7-chloro-4-(dimethylamino)-2-oxoquinazolin-1(2H)-yl)phenyl)amino)methyl)thiophen-2-yl)-4-(dimethylamino)quinazolin-2(1H)-one]
< 0.2	CN(C)c1nc(=O)n(-c2cccc(OCc3csc(-n4c(=O)nc(N(C)C)c5ccc(Cl)cc54)c3)c2)c2cc(Cl)ccc12 [Example 12, 7-Chloro-1-(4-((3-(7-chloro-4-(dimethylamino)-2-oxoquinazolin-1(2H)-yl)phenoxy)methyl)thiophen-2-yl)-4-(dimethylamino)quinazolin-2(1H)-one]
